Assay [1] addresses Tb-labeled inactive PDGFRβ (Homo sapiens (Human), UniProt P09619). The assay is described as follows: biochemical. In kind it is binding. The note with it: read-out: PDGFR Lantha IC50.
The target of assay [2] is His6-TEV-PDGFRβ (557-1016) (Homo sapiens (Human), UniProt P09619). Put plainly: PDGFRβ HTRF Assay. Particulars: 800 μM ATP, 0.5 μM TK-substrate biotin peptide, 30 min pre-incubation, 3 hours reaction; read-out: PDGFR HTRF IC50. In kind it is biochemical. On the procedure:
Instrumentation: a. Compound liquid handling: LabCyte Echo; b. Reagent liquid handling: Thermo Scientific Multidrop Combi; c. BMG PHERAStar multilabel plate reader.
Protein Reagent: His6-TEV-PDGFRβ Protein Prep prepared at Accelagen.
Assay buffer stock solution, contains 50 mM Hepes, 10 mM MgCl2, 1 mM EGTA, and 0.01% Brij-35, 0.01% ovalbumin, 2 mM DTT at pH 7.5, in molecular biology grade water. Store at room temperature.
Assay buffer. Dilute 5× Kinase buffer 5-fold with molecular biology grade water and add DTT to 2 mM and ovalbumin to 0.1 mg/mL (or 0.01%).
2× protein solution. Make a working solution of […] PDGFRβ in assay buffer. Keep on ice until use to maintain enzyme stability.
2× substrate solution. Make a working solution of 1.6 mM ATP and 1 μM TK-substrate biotin peptide in assay buffer. 3× quench/detection solution.
Step 2. PDGFRβ E+I pre-incubation: Add 2 μL 2× protein solution to columns 1-24 using the Multidrop Combi. Centrifuge at 1000 rpm for 1 min. Incubate 30 min at RT
Step 2. Enzymatic reaction: Add 2 μL substrate solution to columns 1-24 to initiate the reaction using the Multidrop Combi; cover/seal the assay plate to reduce evaporation. Centrifuge at 1000 rpm for 1 min. Incubate at room temperature for 3 hours.
Final concentrations of components in PDGFRp cascade assay:
0.5 μM TK-substrate biotin peptide
Step 3. Quench/Detection: Add 2 μl 3× quench/detection solution to columns 1-24 using the Multidrop Combi; cover/seal the plate. Centrifuge 1 min 1000 rpm. Incubate at RT for 60 min.
HTRF ratio values calculated by the instrument (Ratio is acceptor counts/donor counts*10,000) is exported from the plate reader and used in data analysis. The exported data will be used to calculate 1) compound activity and 2) assay statistics. […] Assay statistics can include Robust Z′ and Signal to Background.
% Inhibition Calculation: Percent inhibition will be calculated for sample wells based on the equation: […]
IC50 Calculation: For IC50 determination, full 11-point dose response data will be processed using the following equation: […]
(In TR-FRET formats the signal depends on donor and acceptor labels being close together.)

Assay [3] addresses VEGFR2, unphosphorylated (Homo sapiens (Human), UniProt P35968). The assay is described as follows: VEGFR ADP GLO assay. It is filed as biochemical. Particulars: 5 nM VEGFR2, 1.2 mM ATP, 1 mg/mL Srctide, 180 min. In a few lines: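 Luminescent ADP detection after a 180-min room-temperature reaction of srctide plus ATP (2 mg/mL and 2.4 mM in 2× mix) in pH 7.5 HEPES buffer with DTT, Pluronic and ovalbumin. Compounds, 11 points from 10 µM, first pre-incubated 30 min with enzyme (2× mix 10 nM). IC50s fitted after scaling between DMSO and 1 µM TAK-593 controls.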

Assay [4] concerns the target PDGFRβ (Rattus norvegicus (Rat), UniProt Q05030). Put plainly: PDGFRβ Cellular Assay (PDGFRb P-Y751 HTRF, PDGF-BB stimulated A10 cells). It is filed as cell-based. Particulars: A10 cells, 3 hours compound, 15 ng/mL PDGFbb for 10 minutes; read-out: PDGFR Cellular IC50. The procedure, abridged: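 Rat A10 cells plated overnight were treated with compound for 3 h, stimulated with rat PDGF-BB (working stock 100 ng/mL in 10% FBS medium) for 10 min, then lysed.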

Bounds are passed on as bounds.

One may read the IC50 as the concentration that inhibits the measured activity by half.

Sequence of PDGFRβ (Q05030 whole entry, looked up): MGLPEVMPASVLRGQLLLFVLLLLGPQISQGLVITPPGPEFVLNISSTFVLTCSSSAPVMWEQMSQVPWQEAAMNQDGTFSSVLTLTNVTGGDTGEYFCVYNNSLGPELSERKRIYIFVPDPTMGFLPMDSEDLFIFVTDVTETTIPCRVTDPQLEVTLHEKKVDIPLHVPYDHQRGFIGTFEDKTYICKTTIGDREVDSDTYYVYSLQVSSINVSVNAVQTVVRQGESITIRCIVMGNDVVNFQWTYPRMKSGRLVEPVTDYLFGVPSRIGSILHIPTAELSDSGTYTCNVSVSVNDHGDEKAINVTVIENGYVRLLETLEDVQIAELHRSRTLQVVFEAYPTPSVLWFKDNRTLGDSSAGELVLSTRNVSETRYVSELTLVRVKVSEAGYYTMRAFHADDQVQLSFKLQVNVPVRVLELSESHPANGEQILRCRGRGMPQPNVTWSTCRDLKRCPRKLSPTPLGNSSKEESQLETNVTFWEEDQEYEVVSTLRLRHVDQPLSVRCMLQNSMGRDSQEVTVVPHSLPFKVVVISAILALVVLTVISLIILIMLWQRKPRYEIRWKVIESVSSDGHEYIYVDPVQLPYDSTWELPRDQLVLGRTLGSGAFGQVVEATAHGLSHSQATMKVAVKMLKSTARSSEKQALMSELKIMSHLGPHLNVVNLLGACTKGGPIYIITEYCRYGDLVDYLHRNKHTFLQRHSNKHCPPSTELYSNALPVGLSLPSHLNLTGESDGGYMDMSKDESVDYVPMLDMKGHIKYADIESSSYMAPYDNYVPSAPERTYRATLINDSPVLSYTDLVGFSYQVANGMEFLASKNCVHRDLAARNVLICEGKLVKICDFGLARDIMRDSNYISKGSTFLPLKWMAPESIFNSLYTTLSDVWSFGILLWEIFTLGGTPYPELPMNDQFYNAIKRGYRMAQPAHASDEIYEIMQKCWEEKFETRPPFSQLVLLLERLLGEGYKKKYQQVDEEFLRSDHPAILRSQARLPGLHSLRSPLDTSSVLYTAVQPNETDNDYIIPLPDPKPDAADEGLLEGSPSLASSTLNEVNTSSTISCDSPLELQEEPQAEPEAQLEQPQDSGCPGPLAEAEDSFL
Sequence of His6-TEV-PDGFRβ (557-1016) (P09619 whole entry, looked up): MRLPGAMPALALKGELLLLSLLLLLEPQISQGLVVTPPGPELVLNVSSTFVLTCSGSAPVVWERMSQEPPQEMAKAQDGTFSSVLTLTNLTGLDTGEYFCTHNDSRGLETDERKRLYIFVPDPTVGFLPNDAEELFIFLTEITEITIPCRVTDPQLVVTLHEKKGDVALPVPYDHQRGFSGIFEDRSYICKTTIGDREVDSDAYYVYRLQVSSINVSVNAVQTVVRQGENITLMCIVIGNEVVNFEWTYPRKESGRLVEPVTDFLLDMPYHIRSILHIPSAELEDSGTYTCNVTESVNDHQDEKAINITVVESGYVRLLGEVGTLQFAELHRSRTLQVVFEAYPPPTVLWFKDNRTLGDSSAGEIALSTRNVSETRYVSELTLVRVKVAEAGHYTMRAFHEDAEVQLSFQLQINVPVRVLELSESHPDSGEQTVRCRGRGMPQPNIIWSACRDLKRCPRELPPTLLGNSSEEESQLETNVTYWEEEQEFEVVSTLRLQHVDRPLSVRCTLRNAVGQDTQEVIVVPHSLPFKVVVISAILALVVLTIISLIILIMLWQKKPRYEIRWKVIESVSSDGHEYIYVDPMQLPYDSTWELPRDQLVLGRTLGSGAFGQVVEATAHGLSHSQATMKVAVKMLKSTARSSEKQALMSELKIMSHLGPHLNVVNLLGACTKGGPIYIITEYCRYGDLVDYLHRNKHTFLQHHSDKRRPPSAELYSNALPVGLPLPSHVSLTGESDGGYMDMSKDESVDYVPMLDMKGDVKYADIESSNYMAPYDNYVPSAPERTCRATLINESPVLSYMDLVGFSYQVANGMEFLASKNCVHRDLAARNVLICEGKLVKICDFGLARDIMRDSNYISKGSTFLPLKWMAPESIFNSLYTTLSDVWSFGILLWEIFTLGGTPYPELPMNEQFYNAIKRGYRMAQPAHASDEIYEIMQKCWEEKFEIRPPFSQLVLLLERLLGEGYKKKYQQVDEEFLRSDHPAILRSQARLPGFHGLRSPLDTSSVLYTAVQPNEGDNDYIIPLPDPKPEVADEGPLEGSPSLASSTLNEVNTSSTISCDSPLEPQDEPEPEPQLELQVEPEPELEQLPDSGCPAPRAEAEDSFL
Sequence of Tb-labeled inactive PDGFRβ (P09619 whole entry, looked up): as above
Sequence of VEGFR2, unphosphorylated (P35968 whole entry, looked up): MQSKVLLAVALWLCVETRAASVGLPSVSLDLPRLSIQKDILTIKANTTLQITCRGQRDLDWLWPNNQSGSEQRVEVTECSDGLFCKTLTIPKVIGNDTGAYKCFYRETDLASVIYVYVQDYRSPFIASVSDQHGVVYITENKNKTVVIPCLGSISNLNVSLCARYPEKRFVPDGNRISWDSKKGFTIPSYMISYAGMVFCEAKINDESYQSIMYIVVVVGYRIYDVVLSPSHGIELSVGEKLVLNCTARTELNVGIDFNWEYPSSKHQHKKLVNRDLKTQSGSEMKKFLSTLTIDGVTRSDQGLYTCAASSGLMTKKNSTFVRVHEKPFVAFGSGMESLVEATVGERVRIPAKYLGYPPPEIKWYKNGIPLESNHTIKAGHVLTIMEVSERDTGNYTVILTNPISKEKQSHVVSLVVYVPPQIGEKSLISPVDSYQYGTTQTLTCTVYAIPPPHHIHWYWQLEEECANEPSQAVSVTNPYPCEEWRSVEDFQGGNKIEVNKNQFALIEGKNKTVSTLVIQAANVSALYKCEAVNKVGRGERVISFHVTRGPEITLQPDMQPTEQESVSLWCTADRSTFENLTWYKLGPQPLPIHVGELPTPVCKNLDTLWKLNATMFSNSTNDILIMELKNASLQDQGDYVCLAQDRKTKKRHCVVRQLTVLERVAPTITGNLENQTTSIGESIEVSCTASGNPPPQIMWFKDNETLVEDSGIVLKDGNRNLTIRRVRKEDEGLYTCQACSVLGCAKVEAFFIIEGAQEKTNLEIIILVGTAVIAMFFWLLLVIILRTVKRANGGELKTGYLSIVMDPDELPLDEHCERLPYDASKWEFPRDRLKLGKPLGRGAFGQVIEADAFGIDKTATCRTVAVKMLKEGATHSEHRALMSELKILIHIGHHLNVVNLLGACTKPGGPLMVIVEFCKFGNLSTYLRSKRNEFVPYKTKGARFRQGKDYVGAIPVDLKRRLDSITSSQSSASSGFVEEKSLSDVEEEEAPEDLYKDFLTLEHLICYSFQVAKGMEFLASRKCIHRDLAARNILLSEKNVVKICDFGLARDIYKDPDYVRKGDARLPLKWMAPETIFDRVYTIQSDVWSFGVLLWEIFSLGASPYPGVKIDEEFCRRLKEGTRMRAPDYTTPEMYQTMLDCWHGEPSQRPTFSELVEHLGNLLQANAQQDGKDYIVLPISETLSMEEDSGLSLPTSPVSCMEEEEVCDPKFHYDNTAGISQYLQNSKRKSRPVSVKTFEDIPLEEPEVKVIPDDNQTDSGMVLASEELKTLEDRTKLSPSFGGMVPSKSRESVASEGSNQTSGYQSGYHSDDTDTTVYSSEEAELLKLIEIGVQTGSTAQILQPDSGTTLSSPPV

`Cc1ncc(C(=O)NCCN2CCCC[C@@H]2C)cc1Nc1nn(C)c2nc(Nc3cncnc3)ncc12` [Example 5, (S)-6-methyl-5-((1-methyl-6-(pyrimidin-5-ylamino)-1H-pyrazolo[3,4-d]pyrimidin-3-yl)amino)-N-(2-(2-methylpiperidin-1-yl)ethyl)nicotinamide]: the IC50 was 5.3 nM in assay [1], 0.65 nM in assay [2], 2070 nM in assay [3] and 67.5 nM in assay [4].
Turning to `Cc1ncc(C(=O)NCCN2CC3CCC2CC3)cc1Nc1nn(C)c2nc(Nc3cncnc3)ncc12` [Example 6, N-(2-(2-azabicyclo[2.2.2]octan-2-yl)ethyl)-6-methyl-5-((1-methyl-6-(pyrimidin-5-ylamino)-1H-pyrazolo[3,4-d]pyrimidin-3-yl)amino)nicotinamide], the IC50 is 5.2 nM in assay [1], 0.59 nM in assay [2], above 7500 nM in assay [3] and 102 nM in assay [4].
The corresponding values for `Cc1ncc(C(=O)NCCN2CCC3(CCC3)CC2)cc1Nc1nn(C)c2nc(Nc3cncnc3)ncc12` [Example 7, N-(2-(7-azaspiro[3.5]nonan-7-yl)ethyl)-6-methyl-5-((1-methyl-6-(pyrimidin-5-ylamino)-1H-pyrazolo[3,4-d]pyrimidin-3-yl)amino)nicotinamide] are 6.7 nM, 0.48 nM, above 7500 nM and 32.7 nM.
As for `Cc1ncc(C(=O)NCCN2CCC(C)(C)C2)cc1Nc1nn(C)c2nc(Nc3cncnc3)ncc12` [Example 8, N-(2-(3,3-dimethylpyrrolidin-1-yl)ethyl)-6-methyl-5-((1-methyl-6-(pyrimidin-5-ylamino)-1H-pyrazolo[3,4-d]pyrimidin-3-yl)amino)nicotinamide], the IC50 was 5.8 nM in assay [1], 0.39 nM in assay [2], above 7500 nM in assay [3] and 48 nM in assay [4].
On to `Cc1ncc(C(=O)NCCN(C)C2CCCC2)cc1Nc1nn(C)c2nc(Nc3cncnc3)ncc12` [Example 9, N-(2-(cyclopentyl(methyl)amino)ethyl)-6-methyl-5-((1-methyl-6-(pyrimidin-5-ylamino)-1H-pyrazolo[3,4-d]pyrimidin-3-yl)amino)nicotinamide], for which the IC50 in assay [1] is 7 nM; in assay [2], 0.59 nM; in assay [3], above 7500 nM; in assay [4], 36.5 nM.
For `Cc1ncc(C(=O)NCCN(C)C2CCOCC2)cc1Nc1nn(C)c2nc(Nc3cncnc3)ncc12` [Example 10, 6-methyl-N-(2-(methyl(tetrahydro-2H-pyran-4-yl)amino)ethyl)-5-((1-methyl-6-(pyrimidin-5-ylamino)-1H-pyrazolo[3,4-d]pyrimidin-3-yl)amino)nicotinamide], in that order: 9.9 nM, 0.63 nM, above 7500 nM and 204 nM.
Consider `Cc1ncc(C(=O)NCCN2CCCC[C@H]2C)cc1Nc1nn(C)c2nc(Nc3cncnc3)ncc12` [Example 11, (R)-6-methyl-5-((1-methyl-6-(pyrimidin-5-ylamino)-1H-pyrazolo[3,4-d]pyrimidin-3-yl)amino)-N-(2-(2-methylpiperidin-1-yl)ethyl)nicotinamide], for which the IC50 in assay [1] was 5.8 nM; in assay [2], 0.68 nM; in assay [3] it was around 6630 nM; in assay [4], 68.8 nM.
For `Cc1ncc(C(=O)NCCN2CCOCC23CC3)cc1Nc1nn(C)c2nc(Nc3cncnc3)ncc12` [Example 13, N-(2-(7-oxa-4-azaspiro[2.5]octan-4-yl)ethyl)-6-methyl-5-((1-methyl-6-(pyrimidin-5-ylamino)-1H-pyrazolo[3,4-d]pyrimidin-3-yl)amino)nicotinamide], the IC50 in assay [1] was 12.8 nM; in assay [2], 1.55 nM; in assay [3] it was above 7500 nM; in assay [4], 152 nM.
In the case of `Cc1ncc(C(=O)NCCN2[C@H](C)CCC[C@@H]2C)cc1Nc1nn(C)c2nc(Nc3cncnc3)ncc12` [Example 14, N-(2-((2S,6R)-2,6-dimethylpiperidin-1-yl)ethyl)-6-methyl-5-((1-methyl-6-(pyrimidin-5-ylamino)-1H-pyrazolo[3,4-d]pyrimidin-3-yl)amino)nicotinamide], the IC50 in assay [1] was 8.5 nM; in assay [2] it was 0.89 nM; in assay [3] it was around 7130 nM; in assay [4], 109 nM.
For `Cc1ncc(C(=O)NCCN(C(C)C)C(C)C)cc1Nc1nn(C)c2nc(Nc3cncnc3)ncc12` [Example 15, N-(2-(diisopropylamino)ethyl)-6-methyl-5-((1-methyl-6-(pyrimidin-5-ylamino)-1H-pyrazolo[3,4-d]pyrimidin-3-yl)amino)nicotinamide], in that order: 9.9 nM, 1.01 nM, above 7500 nM and 33.2 nM.
For `Cc1ncc(NC(=O)NCCN2CCCC2(C)C)cc1Nc1nn(C)c2nc(Nc3cncnc3)ncc12` [Example 16, 1-(2-(2,2-dimethylpyrrolidin-1-yl)ethyl)-3-(6-methyl-5-((1-methyl-6-(pyrimidin-5-ylamino)-1H-pyrazolo[3,4-d]pyrimidin-3-yl)amino)pyridin-3-yl)urea], in that order: 18.5 nM, 1.36 nM, above 7500 nM and 1480 nM.
For `Cc1ncc(C(=O)NCCN2CCCOCC2)cc1Nc1nn(C)c2nc(Nc3cnn(C)c3)ncc12` [Example 17, N-(2-(1,4-oxazepan-4-yl)ethyl)-6-methyl-5-((1-methyl-6-((1-methyl-1H-pyrazol-4-yl)amino)-1H-pyrazolo[3,4-d]pyrimidin-3-yl)amino)nicotinamide], in that order: 2.9 nM, 0.48 nM, around 6990 nM and 68.3 nM.
As to `Cc1ncc(C(=O)NCCN2CCCC2(C)C)cc1Nc1nn(C)c2nc(Nc3cncnc3)ncc12` [Example 27, N-(2-(2,2-dimethylpyrrolidin-1-yl)ethyl)-6-methyl-5-((1-methyl-6-(pyrimidin-5-ylamino)-1H-pyrazolo[3,4-d]pyrimidin-3-yl)amino)nicotinamide], the IC50 in assay [1] is 4 nM; in assay [2] it was 0.7 nM; in assay [3], above 10000 nM; in assay [4] it was 31.2 nM.
Regarding `Cc1ncc(C(=O)NCCN2CCCC2(C)C)cc1Nc1nn(C)c2nc(Nc3ccncc3)ncc12` [Example 28, N-(2-(2,2-dimethylpyrrolidin-1-yl)ethyl)-6-methyl-5-((1-methyl-6-(pyridin-4-ylamino)-1H-pyrazolo[3,4-d]pyrimidin-3-yl)amino)nicotinamide], the IC50 in assay [1] was 3.8 nM; in assay [2], 0.5 nM; in assay [3], around 9180 nM; in assay [4] it was 39.4 nM.
As for `Cc1ncc(C(=O)NCCN2CCCC2(C)C)cc1Nc1nn(C)c2nc(Nc3cncc(C(N)=O)c3)ncc12` [Example 29, 5-((6-((5-carbamoylpyridin-3-yl)amino)-1-methyl-1H-pyrazolo[3,4-d]pyrimidin-3-yl)amino)-N-(2-(2,2-dimethylpyrrolidin-1-yl)ethyl)-6-methylnicotinamide], the IC50 in assay [1] is 6.6 nM; in assay [2] it was 0.8 nM; in assay [3], above 10000 nM; in assay [4] it was 5330 nM.
For the molecule `Cc1ncc(C(=O)NCCN2CCCC2(C)C)cc1Nc1nn(C)c2nc(Nc3cncc(C(=O)O)c3)ncc12` [Example 30, 5-((3-((5-((2-(2,2-dimethylpyrrolidin-1-yl)ethyl)carbamoyl)-2-methylpyridin-3-yl)amino)-1-methyl-1H-pyrazolo[3,4-d]pyrimidin-6-yl)amino)nicotinic acid], the IC50 in assay [1] is 36.8 nM; in assay [2], 3.8 nM; in assay [3] it was above 10000 nM; in assay [4], above 10000 nM.

Values taken from US20240360134A1, “PYRAZOLOPYRIMIDINES AND THEIR USES AS PDGFR INHIBITORS” (priority 2021, published 2024).
